The test system of data set [1] is MCF10A nontumorigenic cells. Put plainly: Sensitization to doxorubicin in nontumorigenic cells. The conditions noted are these: data not shown. It counts as cell-based.
Data set [2] deals with MDA-MB 231 breast cancer cells. Put plainly: Cell death and clonogenic survival. It counts as cell-based.
Data set [3] has as its system aconitase (ACO), isocitrate dehydrogenase (IDH), and α-ketoglutarate dehydrogenase (KGDH). The conditions noted are these: cited from earlier work.
Another data set relates to MDA-MB 231 cells. Put plainly: Mitochondrial bioenergetic assay, Extracellular Flux Analyzer XF-24 (OCR). It counts as cell-based, human. The conditions noted are these: 5 μM, 4 h, 0.5% serum containing medium, vs EtOH vehicle. The protocol: FIG. 3. Bioenergetic response of breast cancer cells to MTE. Panel A. A schematic representation of the mitochondrial bioenergetic assay in an Extracellular Flux Analyzer XF-24 (Seahorse Biosciences). Panel A: Sequential injections of oligomycin, FCCP, and Antimycin A allow determination of the component mitochondrial bioenergetic parameters. Panel B. MDA-MB 231 cells were treated for 4 h in 0.5% serum containing medium with EtOH vehicle, IBTP (5 μM), or BTPP (5 μM) and the OCR measured over time. Panel C. Comparison of basal OCR, ATP-dependent OCR, and reserve capacity (RC) with veh and IBTP treatments. Each point is the mean of a minimum of 3 determinations±SEM, from at least 2 independent experiments. Asterisks represent p<0.05. Recent work has shown that MTEs can modulate cell signaling, and depending upon the specific MTE, may do so without causing overt cellular toxicity to cancer cells or normal cells (12). MTEs are small molecules which consist of a triphenylphosphonium lipophilic cationic moiety and a leaving group such as iodide, which renders the adjacent carbon electrophilic. […] We have previously shown reserve capacity is indicative of the cells' ability to withstand a “second hit” of oxidative stress (7).

The subject of data set [4] is MDA-MB 231 breast cancer cells. The experiment in a line: Cell adhesion (reattachment after scraping), viable non-adherent cells counted with trypan blue. The format is cell-based, human. The protocol: FIG. 7. Two ×10^5 cells/plate were plated on a 6-well plate, 24 hrs after plating cells were starved in 0.5% FCS containing media for another 24 hrs. Cells were then treated for another 24 hrs with increasing doses of IBTP or the non-reactive analog butyl-triphenylphosphonium (BTPP) as a control. Cells were scraped and made into single cell suspension. Cells were counted and plated in 100-mm tissue culture plate. After 24 hrs the media is collected, centrifuged and the viable cells were counted using trypan blue.
FIG. 2. Two×10^5 cells/plate were plated on a 6-well plate, 24 hrs after plating cells were starved in 0.5% FCS containing media for another 24 hrs.
Cells were then treated for another 24 hrs with increasing doses of IBTP or the non-reactive analog butyl-triphenylphosphonium (BTPP) as a control. Cells were scraped and made into single cell suspension. Cells were counted and plated in 100-mm tissue culture plate. After 24 hrs the media is collected, centrifuged and the viable cells were counted using trypan blue.

The test system of data set [5] is cancer or noncancer cells. Put plainly: Cytotoxicity of the MTE alone. The format is cell-based. As to conditions: data not shown.
The subject of a further data set is HIF-1α. The experiment in a line: HIF-1α stabilization by western blotting. It counts as cell-based, human. The protocol: FIG. 5. Effects of an MTE on HIF-1α. MDA-MB-231 cells were incubated for 8 h under normoxia or hypoxia and were treated with either 10 μM IBTP or bTPP for 4 h. The lysates were collected and analyzed for HIF-1α stabilization by western blotting.
However, the mechanism for this decrease in HIF-1α protein is not clear. One possibility is that IBTP inhibits the enzyme within the Krebs cycle, KGDH, that is responsible for converting α-ketoglutarate to succinyl-CoA. Inhibition of this enzyme would cause an increase in α-ketoglutarate, which is a cofactor for the prolyl hydroxylase involved in HIF-1α degradation. We propose that MTEs affect HIF-1α stabilization at least in part, by modulating the activity of KGDH and increasing intracellular levels of α-ketoglutarate. KGDH was previously shown to be among the proteins which form covalent adducts with IBTP (13). Importantly, decreased stabilization of HIF-1α prevents the bioenergetic adaptation to hypoxia in breast cancer cells, as we have recently shown (11)(in press, see Appendix 1).

The next data set concerns breast cancer cells. As to conditions: by altering p38 and ERK signaling; cited from earlier work.
The conditions of data set [6]: cited from earlier work.
The conditions of data set [7]: i.p. injection; cited from earlier work.

Here are results for three compounds from US9872868B2, “Mitochondrially-targeted electrophilic compounds and methods of use for the treatment of cancer” (UAB Research Foundation, priority 2013, dated 2018).

Structures are written as SMILES.

For `ICCCC[P+](c1ccccc1)(c1ccccc1)c1ccccc1` [IBTP, iodobutyl triphenylphosphonium iodide], the sensitization to doxorubicin entry in data set [1] is “did not sensitize”. The overt cell death result in data set [2] (10 μM, 24 h) is listed as “no evidence of overt cell death”. Moreover, the clonogenic survival entry in data set [2] (10 μM, data not shown) is given as “significantly decreased clonogenic survival”. Further, the “cytotoxicity at higher concentrations” value in [2] (concentrations higher than 10 μM, MDA-MB 231 and other cell types) is listed as “can be cytotoxic”. Further, in data set [3], the “covalent adducts with Krebs cycle proteins” value is listed as “forms covalent adducts”. In the data set with MDA-MB 231 cells, the “basal OCR” value is listed as “decrease basal OCR” and the “reserve capacity (RC)” value is “completely abrogates the reserve capacity”. In addition, the “reattachment to tissue culture plates after scraping” value in [4] (10 μM, 24 h) is reported as “failed to reattach”. Besides, the inhibition at 10 µM in data set [4] (Homo sapiens, MDA-MB-231, read-out: cells whose adhesion is inhibited after detachment) is about 15%. Moreover, the cytotoxicity entry in [5] is reported as “not cytotoxic”. Also, the “constitutive and hypoxia-inducible expression of HIF-1α protein” value in the data set on HIF-1α (MDA-MB-231, 10 μM, 4 h, normoxia or hypoxia 8 h) is “inhibits both constitutive and hypoxia-inducible expression of HIF-1α protein”. Also, in the data set with HIF-1α (MDA-MB-231, data not shown), the “basal HIF-1α stabilization” value was “inhibited basal HIF-1α stabilization both time and dose-dependently”.

In the case of `CCCCC/C=C/C=C1/C(=O)C=C[C@@H]1C/C=C\CCCC(=O)O` [15d-PGJ2, 15 deoxy-prostaglandin J2], the “migration of breast cancer cells” value with breast cancer cells is recorded as “inhibits migration”.

On to `COC1=C(OC)C(=O)C(CCCCCCCCCC[P+](c2ccccc2)(c2ccccc2)c2ccccc2)=C(C)C1=O` [mitoQ], for which, in data set [6] (clinical trials), the oral bioavailability entry is reported as “orally bioavailable” and the tolerability entry was “well tolerated”. Further, the “efficacy in Parkinson's Disease” value in [6] (phase I clinical trials) is “not found to be effective”. For the same compound, the “dose up to which no toxicity was observed” value in data set [7] is “up to 750 nmol mitoQ/mouse”.
